Read-outs that look alike come from different tables or passages of the source.
Experiments:
M4 muscarinic receptor = molecular target: T1, M4 muscarinic receptor (Homo sapiens, UniProt P08173); assay: Functional mobilization of intracellular calcium (FLIPR, Fluo-3), M4-CHO cells; type: cell-based; details: for Emax: 100% efficacy is the maximum response obtained with the Carbachol control, read-out: M4 Efficacy
T1 construct: expressed in transfected cells; host or cells: CHO cells (M4-CHO, under puromycin, zeocin and blasticidin selection)
T1 sequence (P08173 1-479): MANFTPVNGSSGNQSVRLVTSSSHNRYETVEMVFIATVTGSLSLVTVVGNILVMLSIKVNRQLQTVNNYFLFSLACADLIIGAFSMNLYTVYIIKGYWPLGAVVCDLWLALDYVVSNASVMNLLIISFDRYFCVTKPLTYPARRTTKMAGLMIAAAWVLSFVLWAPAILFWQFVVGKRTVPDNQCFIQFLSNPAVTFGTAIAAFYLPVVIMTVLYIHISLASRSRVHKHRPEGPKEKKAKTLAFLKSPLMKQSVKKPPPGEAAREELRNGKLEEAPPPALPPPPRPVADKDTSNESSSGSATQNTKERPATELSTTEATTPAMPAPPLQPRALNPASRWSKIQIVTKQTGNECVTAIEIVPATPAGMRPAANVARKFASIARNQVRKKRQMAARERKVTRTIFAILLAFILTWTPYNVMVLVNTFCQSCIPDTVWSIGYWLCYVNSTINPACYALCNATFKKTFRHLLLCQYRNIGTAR
Protocol: (§1) CHO cells expressing muscarinic receptors (M1 to M5) are grown as monolayers in tissue culture flasks at 37° C. in a humidified atmosphere containing 5% CO2 and passaged every 3-5 days. The growth media is Dulbecco's modified eagles medium (DMEM, Gibco Cat#12430-054), containing 25 mM Hepes and supplemented with Fetal Bovine Serum (Hyclone, cat# SH30071.03), 0.1 mM of MEM non-essential amino acids (GIBCO, Cat# 11140-050), 1 mM MEM Sodium Pyruvate (GIBCO Cat# 11360-070) and 100 units/ml of Penicillin G and 100 μg/ml of Streptomycin (GIBCO Cat# 15140-122). The recombinant muscarinic receptor cell lines are grown under antibiotic pressure with media containing 25 μm/ml zeocin and 500 μg/ml G418 (M1-CHO), 4 μg/ml puromycin, 50 μg/ml zeocin and 2.5 μm/ml blasticidin (M2 and M4-CHO) or 50 μg/ml zeocin and 4 μg/ml puromycin (M3 and M5-CHO).
(§2) Cells are harvested at 80-90% confluence using Versene (GIBCO Cat# 15040-066), collected by centrifugation and seeded 18-24 hrs prior to running the calcium assay at a density of 5,000-10,000 cells/well in […], clear-bottomed 384-well plates (BD Biocoat, poly-D-lysine, Cat#356663). The day of the experiment, the cells are washed with a plate washer (Bioteck Instruments, ELX 405) using bath1 buffer (140-mM NaCl, 4.5-mM KCL, 2-mM CaCl2, 1-mM MgCl2, 10-mM Hepes-Na, 10-mM Glucose, pH 7.4, with NaOH) containing 1 mM Probenecid. Next, the calcium dye Fluo-3 (25 μl/well of Fluo-3 μM at 4 μM, Molecular Probes F-1241, in Bath 1 buffer containing 1 mM Probenecid) is added to the 25 μl of Bath 1 remaining in each well after the plate wash and the dye is loaded at 37° C. in the tissue culture incubator for 60-90 min. The fluorescent dye is removed using the plate washer with Bath 1 containing 1 mM Probenecid, leaving 25 μl/well of this solution after the wash. Alternatively, cells can be loaded with the calcium indicator from Molecular Devices (Calcium 3 Assay Reagents, Cat # R7181) adding 5 μl of a 5× solution dye in Bath 1 containing 1 mM Probenecid (10 ml per dye flask cat# R7182 to generate a solution 20×) to 20 μl of the same buffer. After loading for 60 min, the experiment can be run without having to remove the dye.
(§3) Compounds are prepared at a 2× fold concentration in a 96-well plate (round bottom, Costar Corning cat# 3656), by reconstituting the pre-spotted compounds in bath 1 containing 1 mM probenecid. The final concentration DMSO is 0.5%, and the amount of DMSO is normalized across the assay plate. To determine an agonist action of the compounds on muscarinic receptors, the reconstituted compounds are added (25 μl compound/well) to the cell assay plate (containing 25 μl/well) using the multi-channel robotic system of the FLIPR 3 Instrument (Molecular Devices, Sunnyvale, Calif.). To determine a functional inhibitory action of the compounds on muscarinic receptors, the reconstituted compounds are added (25 μl compound/well) to the assay plate and pre-incubated for 15 min prior to adding 25 μl of Carbachol at 3× the EC80 for each muscarinic subtype. Alternatively, the compounds can be co-applied simultaneously with the agonist. In both assay modes, the fluorescence is recorded for 60 sec (excitation wavelength is […] and emission wavelength 540 nm) using the FLIPR 3 instrument.
(§4) The potency, efficacy and selectivity of the muscarinic compounds were evaluated by screening the compound activity across the whole family (M1 to M5 cells). Compounds were also screened for activity on other proteins such as other GPCRs and ion channels to determine selectivity on M4 receptors.

M1 muscarinic receptor = molecular target: T2, M1 muscarinic receptor (Homo sapiens, UniProt P11229); assay: Functional mobilization of intracellular calcium (FLIPR, Fluo-3), M1-CHO cells; type: cell-based; details: for Emax: 100% efficacy is the maximum response obtained with the Carbachol control, read-out: M1 Efficacy
T2 construct: expressed in transfected cells; host or cells: CHO cells (M1-CHO, under zeocin and G418 selection)
T2 sequence (P11229 1-460): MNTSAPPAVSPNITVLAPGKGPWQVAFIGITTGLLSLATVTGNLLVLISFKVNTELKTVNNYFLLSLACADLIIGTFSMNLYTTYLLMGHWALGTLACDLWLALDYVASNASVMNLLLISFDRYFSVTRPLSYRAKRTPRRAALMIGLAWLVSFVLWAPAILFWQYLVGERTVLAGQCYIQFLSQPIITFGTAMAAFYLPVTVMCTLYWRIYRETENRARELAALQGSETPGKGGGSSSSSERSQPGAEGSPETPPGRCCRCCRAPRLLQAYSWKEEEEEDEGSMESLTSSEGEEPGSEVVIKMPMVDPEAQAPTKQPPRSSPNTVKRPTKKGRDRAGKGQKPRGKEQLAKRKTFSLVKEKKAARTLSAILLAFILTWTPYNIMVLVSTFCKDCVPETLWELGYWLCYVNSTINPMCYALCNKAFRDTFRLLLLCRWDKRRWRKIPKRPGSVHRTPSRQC
Protocol: as §1, §2, §3, §4

[1] = compound nos. 1-454, M4-CHO cells, calcium mobilization
[2] = compound nos. 1-454, M1-CHO cells, calcium mobilization

SMILES | Emax (M4 muscarinic receptor; compound nos. 1-454) [%] | M4 Activity (M4 muscarinic receptor; [1]) | Emax (M1 muscarinic receptor; compound nos. 1-454) [%] | M1 Activity (M1 muscarinic receptor; [2]) | Emax (M4 muscarinic receptor; compound nos. 455-509) [%] | M4 Activity (M4 muscarinic receptor; compounds 455-509) | Emax (M1 muscarinic receptor; compound nos. 455-509) [%] | M1 Activity (M1 muscarinic receptor; compounds 455-509)
CCOC(=O)N1CCC(N2CCC3(CC2)CN(C(C)=O)c2ccc(-c4ccc(C(F)(F)F)cc4)cc23)CC1 [compound 295] | 55 to 70 | +++ (activity was measured to be less than or equal to 0.1 μM) | 65 to 85 | +++ (activity was measured to be less than or equal to 0.7 μM) | – | – | – | –
CCCc1ccc2c(c1)C1(CCN(C3CCN(C(=O)OCC)CC3)CC1)CN2C(C)=O [compound 74] | 55 to 70 | ++ (activity was measured to be between 0.1 μM and 4.0 μM) | 65 to 85 | +++ (activity was measured to be less than or equal to 0.7 μM) | – | – | – | –
C#CCOC(=O)N1CCC(N2CCC3(CC2)CN(C(C)=O)c2ccc(C)cc23)CC1 [compound 81] | < 55 | + (activity was measured to be greater than or equal to 4.0 μM) | < 65 | ++ (activity was measured to be between 0.7 μM and 3.0 μM) | – | – | – | –
CCOC(=O)N1C2CCC1CC(N1CCC3(CC1)CN(C(C)=O)c1ccc(C)cc13)C2 (stereo not drawn) [compound 9] | 55 to 70 | + (activity was measured to be greater than or equal to 4.0 μM) | 65 to 85 | +++ (activity was measured to be less than or equal to 0.7 μM) | – | – | – | –
CC(=O)NC1CC2(CCN(C3CCCCC3)CC2)c2ccccc21 (stereo not drawn) [compound 2] | < 55 | + (activity was measured to be greater than or equal to 4.0 μM) | < 65 | + (activity was measured to be greater than or equal to 3.0 μM) | – | – | – | –
CCCC(=O)N1CC2(CCN(C3CCN(C(=O)OCC)CC3)CC2)c2cc(F)ccc21 [compound 324] | 55 to 70 | + (activity was measured to be greater than or equal to 4.0 μM) | 65 to 85 | ++ (activity was measured to be between 0.7 μM and 3.0 μM) | – | – | – | –
CCOC(=O)N1C2CCC1CC(N1CCC3(CC1)CN(C(=O)C1CCC1)c1ccc(F)cc13)C2 (stereo not drawn) [compound 179] | 55 to 70 | + (activity was measured to be greater than or equal to 4.0 μM) | > 85 | ++ (activity was measured to be between 0.7 μM and 3.0 μM) | – | – | – | –
c1ccc2c(c1)CCC21CCN(CC2CCOCC2)CC1 [compound 18] | > 70 | ++ (activity was measured to be between 0.1 μM and 4.0 μM) | < 65 | +++ (activity was measured to be less than or equal to 0.7 μM) | – | – | – | –
CC(=O)N1CC2(CCN(C3CCN(c4nc(C)cs4)CC3)CC2)c2ccccc21 [compound 475] | – | – | – | – | 25 to 100 | ++ (activity was measured to be between 2.0 μM and 5.0 μM) | 25 to 100 | ++ (activity was measured to be between 2.0 μM and 5.0 μM)
CCOC(=O)N1CCC(N2CCC3(CC2)C(=O)Nc2ccccc23)CC1 [compound 191] | 55 to 70 | + (activity was measured to be greater than or equal to 4.0 μM) | 65 to 85 | +++ (activity was measured to be less than or equal to 0.7 μM) | – | – | – | –
CCOC(=O)N1CCC(N2CCC3(CC2)CN(CCC(=O)CC)c2ccc(F)cc23)CC1 [compound 229] | > 70 | +++ (activity was measured to be less than or equal to 0.1 μM) | < 65 | ++ (activity was measured to be between 0.7 μM and 3.0 μM) | – | – | – | –
CC(=O)N1CC2(CCN(C3CC4CCC(C3)N4C(=O)O[C@@H]3CCOC3)CC2)c2cc(F)ccc21 (stereo partly drawn) [compound 67] | < 55 | ++ (activity was measured to be between 0.1 μM and 4.0 μM) | < 65 | +++ (activity was measured to be less than or equal to 0.7 μM) | – | – | – | –
CCOC(=O)N1CCC(N2CCC3(CC2)CN(C(=O)c2ccno2)c2ccc(F)cc23)CC1 [compound 321] | 55 to 70 | + (activity was measured to be greater than or equal to 4.0 μM) | 65 to 85 | ++ (activity was measured to be between 0.7 μM and 3.0 μM) | – | – | – | –
O=C(O[C@@H]1CCOC1)N1C2CCC1CC(N1CCC3(CCc4ccccc43)CC1)C2 (stereo partly drawn) [compound 43] | > 70 | + (activity was measured to be greater than or equal to 4.0 μM) | > 85 | +++ (activity was measured to be less than or equal to 0.7 μM) | – | – | – | –
CCOC(=O)N1C2CCC1CC(N1CCC3(CC1)CN(C(=O)Nc1c(C)noc1C)c1ccc(F)cc13)C2 (stereo not drawn) [compound 83] | < 55 | + (activity was measured to be greater than or equal to 4.0 μM) | < 65 | +++ (activity was measured to be less than or equal to 0.7 μM) | – | – | – | –
Cc1ccc2c(c1)C1(CCN(C3C4CCCC3CCC4)CC1)CN2 (stereo not drawn) [compound 72] | 55 to 70 | ++ (activity was measured to be between 0.1 μM and 4.0 μM) | 65 to 85 | +++ (activity was measured to be less than or equal to 0.7 μM) | – | – | – | –
CCOC(=O)N1C2CCC1CC(N1CCC3(CC1)C(=O)N(C)c1ccccc13)C2 (stereo not drawn) [compound 149] | > 70 | + (activity was measured to be greater than or equal to 4.0 μM) | > 85 | +++ (activity was measured to be less than or equal to 0.7 μM) | – | – | – | –
CCOC(=O)N1CCC(N2CCC3(CC2)CN(C(=O)C2CCCCC2)c2ccc(F)cc23)CC1 [compound 281] | 55 to 70 | ++ (activity was measured to be between 0.1 μM and 4.0 μM) | < 65 | ++ (activity was measured to be between 0.7 μM and 3.0 μM) | – | – | – | –
